Tested on: 317291-083-R-J1-PDC complex spheroids, viability
Test: Anticancer human tumor 317291-083-R-J1-PDC patient-derived soft tissue sarcoma cell line growth inhibition [GQUAD]
Details: for IC50: curve of first compound; for viability, T/C: stronger effect = lower value
How it was run: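 Tumor cells were grown as complex spheroids with HUVEC endothelial cells and mesenchymal stem cells as stroma. G-quadruplex stabilizers were combined with targeted agents over half-log dilutions from near the clinical Cmax, or from 10 microM.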

[1] = second compound 0.0316 µM, first compound 0.0316 µM
[2] = second compound 0.0316 µM, first compound 0.1 µM
[3] = second compound 0.0316 µM, first compound 0.316 µM
[4] = second compound 0.0316 µM, first compound 1 µM
[5] = second compound 0.0316 µM, first compound 3.16 µM
[6] = second compound 0.0316 µM, first compound 10 µM
[7] = second compound 0.1 µM, first compound 0.0316 µM
[8] = second compound 0.1 µM, first compound 0.1 µM
[9] = second compound 0.1 µM, first compound 0.316 µM
[10] = second compound 0.1 µM, first compound 1 µM
[11] = second compound 0.1 µM, first compound 3.16 µM
[12] = second compound 0.1 µM, first compound 10 µM
[13] = second compound 0.316 µM, first compound 0.0316 µM
[14] = second compound 0.316 µM, first compound 0.1 µM
[15] = second compound 0.316 µM, first compound 0.316 µM
[16] = second compound 0.316 µM, first compound 1 µM
[17] = second compound 0.316 µM, first compound 3.16 µM
[18] = second compound 0.316 µM, first compound 10 µM
[19] = second compound 1 µM, first compound 0.0316 µM
[20] = second compound 1 µM, first compound 0.1 µM
[21] = second compound 1 µM, first compound 0.316 µM
[22] = second compound 1 µM, first compound 1 µM
[23] = second compound 1 µM, first compound 3.16 µM
[24] = second compound 1 µM, first compound 10 µM
[25] = second compound 3.16 µM, first compound 0.0316 µM
[26] = second compound 3.16 µM, first compound 0.1 µM
[27] = second compound 3.16 µM, first compound 0.316 µM
[28] = second compound 3.16 µM, first compound 1 µM
[29] = second compound 3.16 µM, first compound 3.16 µM
[30] = second compound 3.16 µM, first compound 10 µM
[31] = second compound 10 µM, first compound 0.0316 µM
[32] = second compound 10 µM, first compound 0.1 µM
[33] = second compound 10 µM, first compound 0.316 µM
[34] = second compound 10 µM, first compound 1 µM
[35] = second compound 10 µM, first compound 3.16 µM
[36] = second compound 10 µM, first compound 10 µM
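Also: spheroids exposed to compounds for one week before readout.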
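For viability, T/C in this document: percent viability relative to DMSO vehicle wells taken as 100%.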

CCCS(=O)(=O)Nc1ccc(F)c(C(=O)c2c[nH]c3ncc(-c4ccc(Cl)cc4)cc23)c1F + Cc1[nH]c2ccc(F)cc2c1-c1nc2c3cccnc3c3ncccc3c2[nH]1
IC50 (second compound 0.0316 µM): 2610 nM
IC50 (second compound 0.1 µM): 2610 nM
IC50 (second compound 0.316 µM): 1760 nM
IC50 (second compound 1 µM): 343 nM
IC50 (second compound 3.16 µM): < 31.6 nM
IC50 (second compound 10 µM): < 31.6 nM
viability, T/C [1]: 110%
viability, T/C [2]: 103%
viability, T/C [3]: 95.6%
viability, T/C [4]: 89.2%
viability, T/C [5]: 41.7%
viability, T/C [6]: 14.3%
viability, T/C [7]: 95.5%
viability, T/C [8]: 88.3%
viability, T/C [9]: 83.5%
viability, T/C [10]: 94.3%
viability, T/C [11]: 41.9%
viability, T/C [12]: 14%
viability, T/C [13]: 73.5%
viability, T/C [14]: 72.5%
viability, T/C [15]: 67.1%
viability, T/C [16]: 67.8%
viability, T/C [17]: 31.7%
viability, T/C [18]: 10.3%
viability, T/C [19]: 62.1%
viability, T/C [20]: 61%
viability, T/C [21]: 41.5%
viability, T/C [22]: 41.6%
viability, T/C [23]: 37.7%
viability, T/C [24]: 11.3%
viability, T/C [25]: 46%
viability, T/C [26]: 26.5%
viability, T/C [27]: 30.2%
viability, T/C [28]: 19.9%
viability, T/C [29]: 15.9%
viability, T/C [30]: 5.4%
viability, T/C [31]: 40.7%
viability, T/C [32]: 47.5%
viability, T/C [33]: 42.4%
viability, T/C [34]: 49.3%
viability, T/C [35]: 25.3%
viability, T/C [36]: 6.95%

Cc1[nH]c2ccccc2c1CCNCc1ccc(/C=C/C(=O)NO)cc1 + Cc1[nH]c2ccc(F)cc2c1-c1nc2c3cccnc3c3ncccc3c2[nH]1
IC50 (second compound 0.0316 µM): 43.4 nM
IC50 (second compound 0.1 µM): 48.1 nM
IC50 (second compound 0.316 µM): 12.1 nM
IC50 (second compound 1 µM): 4.07 nM
IC50 (second compound 3.16 µM): 1.08 nM
IC50 (second compound 10 µM): < 0.999 nM
viability, T/C (second compound 0.0316 µM, first compound 0.000999 µM): 114%
viability, T/C (second compound 0.0316 µM, first compound 0.00316 µM): 96.7%
viability, T/C (second compound 0.0316 µM, first compound 0.00999 µM): 96.9%
viability, T/C [1]: 67%
viability, T/C (second compound 0.0316 µM, first compound 0.0999 µM): 6.7%
viability, T/C [3]: 0.62%
viability, T/C (second compound 0.1 µM, first compound 0.000999 µM): 93.4%
viability, T/C (second compound 0.1 µM, first compound 0.00316 µM): 93.3%
viability, T/C (second compound 0.1 µM, first compound 0.00999 µM): 85.2%
viability, T/C [7]: 74%
viability, T/C (second compound 0.1 µM, first compound 0.0999 µM): 8.53%
viability, T/C [9]: 0.12%
viability, T/C (second compound 0.316 µM, first compound 0.000999 µM): 73.3%
viability, T/C (second compound 0.316 µM, first compound 0.00316 µM): 68.5%
viability, T/C (second compound 0.316 µM, first compound 0.00999 µM): 53.9%
viability, T/C [13]: 28.9%
viability, T/C (second compound 0.316 µM, first compound 0.0999 µM): 6.05%
viability, T/C [15]: 0.16%
viability, T/C (second compound 1 µM, first compound 0.000999 µM): 59.9%
viability, T/C (second compound 1 µM, first compound 0.00316 µM): 51%
viability, T/C (second compound 1 µM, first compound 0.00999 µM): 39.7%
viability, T/C [19]: 15.5%
viability, T/C (second compound 1 µM, first compound 0.0999 µM): 3.36%
viability, T/C [21]: 0.14%
viability, T/C (second compound 3.16 µM, first compound 0.000999 µM): 51.5%
viability, T/C (second compound 3.16 µM, first compound 0.00316 µM): 39%
viability, T/C (second compound 3.16 µM, first compound 0.00999 µM): 19.9%
viability, T/C [25]: 27.9%
viability, T/C (second compound 3.16 µM, first compound 0.0999 µM): 1.59%
viability, T/C [27]: 0.17%
viability, T/C (second compound 10 µM, first compound 0.000999 µM): 48.7%
viability, T/C (second compound 10 µM, first compound 0.00316 µM): 49%
viability, T/C (second compound 10 µM, first compound 0.00999 µM): 51.4%
viability, T/C [31]: 13.5%
viability, T/C (second compound 10 µM, first compound 0.0999 µM): 3.62%
viability, T/C [33]: 0.24%

O=C(NO)c1cnc(N2CCN(S(=O)(=O)c3ccc4ccccc4c3)CC2)nc1 + Cc1[nH]c2ccc(F)cc2c1-c1nc2c3cccnc3c3ncccc3c2[nH]1
IC50 (second compound 0.0316 µM): 153 nM
IC50 (second compound 0.1 µM): 211 nM
IC50 (second compound 0.316 µM): 113 nM
IC50 (second compound 1 µM): 60.2 nM
IC50 (second compound 3.16 µM): < 31.6 nM
IC50 (second compound 10 µM): < 31.6 nM
viability, T/C [1]: 99.5%
viability, T/C [2]: 71.4%
viability, T/C [3]: 13.9%
viability, T/C [4]: 0.16%
viability, T/C [5]: 0.07%
viability, T/C [6]: 0.9%
viability, T/C [7]: 117%
viability, T/C [8]: 102%
viability, T/C [9]: 22.1%
viability, T/C [10]: 0.09%
viability, T/C [11]: 0.03%
viability, T/C [12]: 0.45%
viability, T/C [13]: 66.5%
viability, T/C [14]: 55.2%
viability, T/C [15]: 6.53%
viability, T/C [16]: 0.09%
viability, T/C [17]: 0.04%
viability, T/C [18]: 0.16%
viability, T/C [19]: 60.6%
viability, T/C [20]: 41.6%
viability, T/C [21]: 10.5%
viability, T/C [22]: 0.06%
viability, T/C [23]: 0.09%
viability, T/C [24]: 0.07%
viability, T/C [25]: 42.7%
viability, T/C [26]: 19.4%
viability, T/C [27]: 3.52%
viability, T/C [28]: 0.44%
viability, T/C [29]: 0.18%
viability, T/C [30]: 0.72%
viability, T/C [31]: 42.9%
viability, T/C [32]: 35.3%
viability, T/C [33]: 4.65%
viability, T/C [34]: 0.13%
viability, T/C [35]: 0.22%
viability, T/C [36]: 0.17%

From PubChem BioAssay AID2060497 (Molecular Pharmacology Branch, DTP, NCI, 2025)
